Test results from PubChem BioAssay (NCI).
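Cells were grown in 96-well plates and exposed to each compound for 48 hours at five concentrations; endpoints were interpolated linearly between bracketing concentrations, or set to the highest concentration if not reached. At the GI50, growth is halved. TGI is the concentration that stops growth completely.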

Tests used:
Test in all cases: NCI tumour cell line growth inhibition, 48 h
[1] = system: MDA-MB-468 breast
[2] = system: EKVX NSCLC
[3] = system: SK-OV-3 ovarian
[4] = system: RXF 393 renal
[5] = system: SNB-75 CNS
[6] = system: K-562 leukemia
[7] = system: DU-145 prostate
[8] = system: OVCAR-4 ovarian
[9] = system: SW-620 colon
[10] = system: MOLT-4 leukemia
[11] = system: NCI-H226 lung
[12] = system: LOX IMVI melanoma
[13] = system: UACC-257 melanoma
[14] = system: 786-0 renal
[15] = system: NCI-H23 lung
[16] = system: M14 melanoma
[17] = system: A549 NSCLC
[18] = system: T-47D breast
[19] = system: KM12 colon
[20] = system: A498 renal
[21] = system: SR leukemia
[22] = system: HCC-2998 colon
[23] = system: HOP-62 NSCLC
[24] = system: MCF7 breast
[25] = system: HS 578T breast
[26] = system: MALME-3M melanoma
[27] = system: ACHN renal
[28] = system: BT-549 breast
[29] = system: HOP-92 NSCLC
[30] = system: U251 CNS
[31] = system: TK-10 renal
[32] = system: NCI/ADR-RES ovarian
[33] = system: SK-MEL-2 melanoma
[34] = system: IGROV1 ovarian
[35] = system: SF-539 CNS
[36] = system: HL-60(TB) leukemia
[37] = system: SN12C renal
[38] = system: HCT-116 colon
[39] = system: PC-3 prostate
[40] = system: HCT-15 colon
[41] = system: HT29 colon
[42] = system: SNB-19 CNS
[43] = system: UACC-62 melanoma
[44] = system: OVCAR-5 ovarian
[45] = system: NCI-H460 lung
[46] = system: UO-31 renal
[47] = system: OVCAR-8 ovarian
[48] = system: RPMI-8226 leukemia
[49] = system: MDA-MB-231 breast
[50] = system: COLO 205 colon
[51] = system: CAKI-1 renal
[52] = system: SK-MEL-28 melanoma
[53] = system: CCRF-CEM leukemia
[54] = system: SK-MEL-5 melanoma
[55] = system: SF-295 CNS
[56] = system: MDA-MB-435
[57] = system: OVCAR-3 ovarian
[58] = system: SF-268 CNS
[59] = system: NCI-H522 lung

## N#C[C@@H]1C(n2ccc(N)nc2=O)O[C@H](CO)[C@H]1O (stereo partly specified)
[1]
  GI50: > 73.1 µM
  TGI: > 100 µM

## CNC(=O)c1cc(-n2ccc3cc(NC(=O)Nc4ccc(N5CCOCC5)c(C(F)(F)F)c4)ccc32)ccn1
[1]
  GI50: 12.8 µM
  TGI: > 33.3 µM

## C=C(C)C(=O)O[C@H]1C[C@@]2(C)OC(=CC2=O)/C(C)=C\[C@H]2OC(=O)C(=C)[C@H]12
[1]
  GI50: 0.622 µM
  TGI: 1.56 µM

## Cc1ccc(NC(=O)Cn2c(Br)nc3c2c(=O)n(C)c(=O)n3C)cc1
[1]
  GI50: 10.1 µM
  TGI: 23.2 µM

## O=C1CCCN1CC#CCN1CCCC1
[1]
  GI50: > 100 µM
  TGI: > 100 µM

## NC(=O)c1ccc(C2C3=C(CCCC3=O)OC3=C2C(=O)c2ccccc2C3=O)cc1 (stereo unspecified)
[1]
  GI50: 0.201 µM
  TGI: 0.649 µM

## COC(=O)CCC1=C(C)/C(=C/c2[nH]c(-c3ccc[nH]3)cc2OC)N=C1C
[1]
  GI50: 1.14 µM
  TGI: 3.18 µM

## Cc1cc(-c2nnc3n2CCCCC3)c(C)n1-c1ccc(Cl)c(Cl)c1
[1]
  GI50: 2.66 µM
  TGI: 14 µM

## COC(=O)CCCCCN=Cc1c(O)c(O)c(C(C)C)c2cc(C)c(-c3c(C)cc4c(C(C)C)c(O)c(O)c(C=NCCCCCC(=O)OC)c4c3O)c(O)c12
[1]
  GI50: 1.97 µM
  TGI: 12.9 µM

## COc1ccc(C2CC(n3nnnc3-c3ccccc3)=NN2)cc1 (stereo unspecified)
[1]
  GI50: 3.98 µM
  TGI: 47.6 µM

## CCOc1c(Cl)cc(CNC(C)C(O)c2ccccc2)cc1OC (stereo unspecified)
[1]
  GI50: 16.7 µM
  TGI: 33.2 µM

## CSc1ccc(/C=C2\C=C(CC(=O)NCc3ccc(C(=O)c4ccccc4)cc3)c3cc(F)ccc32)cc1
[1]
  GI50: 0.0199 µM
  TGI: 7.4 µM

## CCn1c2ccc(/C=N/OCCCN(C)C)cc2c2cc(/C=N/OCCCN(C)C)ccc21
[1]
  GI50: 1.38 µM
  TGI: 3.05 µM

## CCCCCCN(CCCCCC)CC(O)c1ccc2c3c(cccc13)CC2 (stereo unspecified)
[1]
  GI50: 3.43 µM
  TGI: 14.4 µM

## O=C(NO)c1ccc(CNC(=O)[C@H]2Cc3c([nH]c4ccccc34)[C@H](c3ccc(Cl)cc3)N2)cc1
[2]
  GI50: 2.65 µM
  TGI: 16.4 µM
[3]
  GI50: 2.01 µM
  TGI: 5.9 µM
[4]
  GI50: 0.455 µM
  TGI: 2.25 µM
[5]
  GI50: 2.26 µM
  TGI: 7.58 µM
[6]
  GI50: 0.72 µM
  TGI: > 22 µM
[7]
  GI50: 1.08 µM
  TGI: > 22 µM
[8]
  GI50: 3.73 µM
  TGI: > 22 µM
[9]
  GI50: 0.687 µM
  TGI: 2.37 µM
[10]
  GI50: 0.563 µM
  TGI: > 22 µM
[11]
  GI50: 2.27 µM
  TGI: 11.6 µM
[12]
  GI50: 1.09 µM
  TGI: 4.76 µM
[13]
  GI50: 1.23 µM
  TGI: > 22 µM
[14]
  GI50: 3.71 µM
  TGI: 14.2 µM
[15]
  GI50: 1.33 µM
  TGI: 4.26 µM
[16]
  GI50: 2.2 µM
  TGI: 8.42 µM
[17]
  GI50: 3.97 µM
  TGI: > 22 µM
[18]
  GI50: 0.6 µM
  TGI: 5.44 µM
[19]
  GI50: 2.36 µM
  TGI: 6.71 µM
[20]
  GI50: 2.06 µM
  TGI: 9.06 µM
[21]
  GI50: 1.15 µM
  TGI: > 22 µM
[22]
  GI50: 0.605 µM
  TGI: 3.08 µM
[23]
  GI50: 1.27 µM
  TGI: 7.42 µM
[24]
  GI50: 0.874 µM
  TGI: 8.36 µM
[25]
  GI50: 1.01 µM
  TGI: > 22 µM
[26]
  GI50: 0.41 µM
  TGI: 2.31 µM
[27]
  GI50: 3.05 µM
  TGI: 9.57 µM
[28]
  GI50: 4.93 µM
  TGI: 11 µM
[29]
  GI50: 0.93 µM
  TGI: 4.48 µM
[30]
  GI50: 1.21 µM
  TGI: 5.8 µM
[31]
  GI50: 1.51 µM
  TGI: 14.6 µM
[32]
  GI50: 3.35 µM
  TGI: > 22 µM
[1]
  GI50: 0.38 µM
  TGI: 1.14 µM
[33]
  GI50: 2.77 µM
  TGI: 7.03 µM
[34]
  GI50: 1.2 µM
  TGI: 4.27 µM
[35]
  GI50: 1.14 µM
  TGI: 4.24 µM
[36]
  GI50: 0.706 µM
  TGI: 3.13 µM
[37]
  GI50: 2.41 µM
  TGI: 9.15 µM
[38]
  GI50: 0.609 µM
  TGI: 3.72 µM
[39]
  GI50: 1.76 µM
  TGI: 9.17 µM
[40]
  GI50: 4.26 µM
  TGI: > 22 µM
[41]
  GI50: 0.838 µM
  TGI: > 22 µM
[42]
  GI50: 2.26 µM
  TGI: 5.3 µM
[43]
  GI50: 0.538 µM
  TGI: 2.94 µM
[44]
  GI50: 0.456 µM
  TGI: 3.01 µM
[45]
  GI50: 1.02 µM
  TGI: > 22 µM
[46]
  GI50: 2.64 µM
  TGI: 6.27 µM
[47]
  GI50: 0.942 µM
  TGI: > 22 µM
[48]
  GI50: 0.564 µM
  TGI: > 22 µM
[49]
  GI50: 0.887 µM
  TGI: 4 µM
[50]
  GI50: 0.719 µM
  TGI: 3.38 µM
[51]
  GI50: 2.33 µM
  TGI: 9.73 µM
[52]
  GI50: 0.878 µM
  TGI: 3.62 µM
[53]
  GI50: 0.617 µM
  TGI: > 22 µM
[54]
  GI50: 0.721 µM
  TGI: 2.71 µM
[55]
  GI50: 1.81 µM
  TGI: 4.75 µM
[56]
  GI50: 0.959 µM
  TGI: 4.36 µM
[57]
  GI50: 1.23 µM
  TGI: 9.15 µM
[58]
  GI50: 2.92 µM
  TGI: 12.5 µM
[59]
  GI50: 0.584 µM
  TGI: 3.16 µM
